Key:
Adenosine receptor A2a = Adenosine receptor A2a (Homo sapiens, UniProt P29274)
[1] = target: T1, Alpha-2A adrenergic receptor (Homo sapiens, UniProt P08913); type: functional, cell-based
T1 sequence (P08913 whole entry): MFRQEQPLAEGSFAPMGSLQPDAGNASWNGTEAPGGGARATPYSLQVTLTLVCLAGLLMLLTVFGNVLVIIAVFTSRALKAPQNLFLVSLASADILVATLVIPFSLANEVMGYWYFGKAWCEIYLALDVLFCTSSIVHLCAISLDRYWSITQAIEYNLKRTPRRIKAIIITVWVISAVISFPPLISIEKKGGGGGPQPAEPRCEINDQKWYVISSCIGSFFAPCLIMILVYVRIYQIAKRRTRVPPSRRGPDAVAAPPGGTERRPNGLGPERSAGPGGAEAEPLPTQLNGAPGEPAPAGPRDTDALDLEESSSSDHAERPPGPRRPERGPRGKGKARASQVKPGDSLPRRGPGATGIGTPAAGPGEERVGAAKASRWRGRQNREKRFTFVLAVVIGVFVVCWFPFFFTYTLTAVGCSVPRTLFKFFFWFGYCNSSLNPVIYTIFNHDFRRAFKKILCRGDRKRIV

[2] = target: T2, Alpha-2C adrenergic receptor (Homo sapiens, UniProt P18825); type: functional
T2 sequence (P18825 whole entry): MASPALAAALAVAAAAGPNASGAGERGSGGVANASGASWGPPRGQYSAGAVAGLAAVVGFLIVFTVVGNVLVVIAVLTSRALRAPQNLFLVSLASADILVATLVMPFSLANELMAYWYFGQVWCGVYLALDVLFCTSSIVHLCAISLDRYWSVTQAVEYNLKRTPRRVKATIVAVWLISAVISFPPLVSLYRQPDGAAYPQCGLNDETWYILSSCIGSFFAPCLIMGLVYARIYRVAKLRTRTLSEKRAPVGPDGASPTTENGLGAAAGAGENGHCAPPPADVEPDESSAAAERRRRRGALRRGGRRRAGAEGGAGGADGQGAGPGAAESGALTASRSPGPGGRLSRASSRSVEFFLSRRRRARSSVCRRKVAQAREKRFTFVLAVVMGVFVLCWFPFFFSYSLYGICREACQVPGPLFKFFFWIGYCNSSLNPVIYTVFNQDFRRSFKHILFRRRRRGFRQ

D(1A) dopamine receptor = D(1A) dopamine receptor (Homo sapiens, UniProt P21728); type: functional, cell-based
Endothelin-1 receptor = target: T3, Endothelin-1 receptor (Homo sapiens, UniProt P25101)
T3 sequence (P25101 whole entry): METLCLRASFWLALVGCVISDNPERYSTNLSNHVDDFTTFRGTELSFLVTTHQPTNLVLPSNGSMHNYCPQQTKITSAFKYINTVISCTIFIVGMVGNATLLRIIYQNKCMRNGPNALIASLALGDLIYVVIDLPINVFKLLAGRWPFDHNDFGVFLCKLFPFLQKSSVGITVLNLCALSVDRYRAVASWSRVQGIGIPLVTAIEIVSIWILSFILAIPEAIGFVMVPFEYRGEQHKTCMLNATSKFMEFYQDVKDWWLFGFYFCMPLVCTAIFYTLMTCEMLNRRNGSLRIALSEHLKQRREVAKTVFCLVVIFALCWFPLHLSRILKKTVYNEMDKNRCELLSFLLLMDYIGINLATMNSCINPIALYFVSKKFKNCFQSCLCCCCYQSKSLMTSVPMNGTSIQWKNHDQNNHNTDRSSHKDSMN

[3] = target: T4, Gamma-aminobutyric acid receptor subunit alpha-1 (Rattus norvegicus, UniProt P62813)
[4] = target: T4, Gamma-aminobutyric acid receptor subunit alpha-1; type: functional
[5] = target: T5, 5-hydroxytryptamine receptor 1A (Homo sapiens, UniProt P08908); type: functional, cell-based
T5 sequence (P08908 whole entry): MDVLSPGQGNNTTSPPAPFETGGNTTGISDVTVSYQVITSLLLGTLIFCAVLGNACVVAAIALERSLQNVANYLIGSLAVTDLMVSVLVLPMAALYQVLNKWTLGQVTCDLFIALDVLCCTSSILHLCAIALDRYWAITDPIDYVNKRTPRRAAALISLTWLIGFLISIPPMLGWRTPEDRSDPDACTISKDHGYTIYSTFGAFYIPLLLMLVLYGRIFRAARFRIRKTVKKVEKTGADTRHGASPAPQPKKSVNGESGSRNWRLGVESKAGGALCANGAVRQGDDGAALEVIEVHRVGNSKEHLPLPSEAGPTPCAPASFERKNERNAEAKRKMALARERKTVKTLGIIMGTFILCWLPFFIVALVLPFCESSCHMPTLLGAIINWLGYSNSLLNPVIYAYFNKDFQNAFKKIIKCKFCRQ

[6] = target: 5-hydroxytryptamine receptor 2A (Homo sapiens, UniProt P28223); type: functional, cell-based
[7] = target: Kappa-type opioid receptor (Homo sapiens, UniProt P41145)
Mu-type opioid receptor [8] = target: T6, Mu-type opioid receptor (Homo sapiens, UniProt P35372); test: biochemical; type: functional
[9] = target: T7, Sodium-dependent dopamine transporter (Homo sapiens, UniProt Q01959)
D(3) dopamine receptor = D(3) dopamine receptor (Homo sapiens, UniProt P35462)
Histamine H3 receptor [10] = target: T8, Histamine H3 receptor (Homo sapiens, UniProt Q9Y5N1)
Cannabinoid receptor 1 [11] = target: T9, Cannabinoid receptor 1 (Homo sapiens, UniProt P21554); type: functional, cell-based
Cannabinoid receptor 1 [12] = target: T9, Cannabinoid receptor 1; type: functional, cell-based; remark: listed apart in the source
Histamine H3 receptor [13] = target: T8, Histamine H3 receptor; remark: listed apart in the source
[14] = target: T5, 5-hydroxytryptamine receptor 1A; type: functional, cell-based; remark: listed apart in the source
Mu-type opioid receptor [15] = target: T6, Mu-type opioid receptor
[16] = target: T7, Sodium-dependent dopamine transporter; remark: listed apart in the source
Also: assay procedure not described here.

Chain of D(3) dopamine receptor (P35462 whole entry): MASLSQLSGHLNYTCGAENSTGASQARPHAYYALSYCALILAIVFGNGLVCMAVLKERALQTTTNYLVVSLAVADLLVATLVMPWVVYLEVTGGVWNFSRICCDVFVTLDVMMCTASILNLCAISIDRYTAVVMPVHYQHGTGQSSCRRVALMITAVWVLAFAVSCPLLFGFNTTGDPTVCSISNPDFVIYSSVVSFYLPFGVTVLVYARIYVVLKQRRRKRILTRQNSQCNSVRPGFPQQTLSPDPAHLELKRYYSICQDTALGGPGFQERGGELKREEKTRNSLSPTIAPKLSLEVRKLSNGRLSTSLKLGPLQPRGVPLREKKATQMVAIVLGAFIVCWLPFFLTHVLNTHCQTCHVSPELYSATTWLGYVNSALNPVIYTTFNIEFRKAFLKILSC
T6 sequence (P35372 whole entry): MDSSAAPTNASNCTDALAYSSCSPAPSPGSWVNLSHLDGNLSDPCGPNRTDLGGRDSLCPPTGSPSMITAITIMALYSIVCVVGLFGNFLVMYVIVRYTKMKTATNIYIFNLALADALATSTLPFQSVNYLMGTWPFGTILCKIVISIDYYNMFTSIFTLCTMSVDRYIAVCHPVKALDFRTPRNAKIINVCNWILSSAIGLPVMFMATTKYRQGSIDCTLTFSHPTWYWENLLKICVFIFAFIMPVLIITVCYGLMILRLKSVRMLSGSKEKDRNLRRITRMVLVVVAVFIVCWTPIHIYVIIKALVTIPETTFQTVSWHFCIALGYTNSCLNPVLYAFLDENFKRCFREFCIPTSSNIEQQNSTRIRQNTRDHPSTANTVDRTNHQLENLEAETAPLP
T8 sequence (Q9Y5N1 whole entry): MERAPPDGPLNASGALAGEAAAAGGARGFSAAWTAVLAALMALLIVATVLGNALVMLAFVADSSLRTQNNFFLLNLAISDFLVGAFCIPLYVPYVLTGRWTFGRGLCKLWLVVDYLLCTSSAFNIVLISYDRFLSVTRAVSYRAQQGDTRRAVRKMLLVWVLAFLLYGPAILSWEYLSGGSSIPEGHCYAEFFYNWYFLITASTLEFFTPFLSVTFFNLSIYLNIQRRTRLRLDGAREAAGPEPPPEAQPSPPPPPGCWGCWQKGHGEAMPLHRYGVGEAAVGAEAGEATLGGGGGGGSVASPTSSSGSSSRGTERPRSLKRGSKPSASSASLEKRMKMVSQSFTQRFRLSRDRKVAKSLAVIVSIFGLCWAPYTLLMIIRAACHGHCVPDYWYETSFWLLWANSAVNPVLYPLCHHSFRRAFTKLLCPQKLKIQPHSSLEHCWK
T4 sequence (P62813 whole entry): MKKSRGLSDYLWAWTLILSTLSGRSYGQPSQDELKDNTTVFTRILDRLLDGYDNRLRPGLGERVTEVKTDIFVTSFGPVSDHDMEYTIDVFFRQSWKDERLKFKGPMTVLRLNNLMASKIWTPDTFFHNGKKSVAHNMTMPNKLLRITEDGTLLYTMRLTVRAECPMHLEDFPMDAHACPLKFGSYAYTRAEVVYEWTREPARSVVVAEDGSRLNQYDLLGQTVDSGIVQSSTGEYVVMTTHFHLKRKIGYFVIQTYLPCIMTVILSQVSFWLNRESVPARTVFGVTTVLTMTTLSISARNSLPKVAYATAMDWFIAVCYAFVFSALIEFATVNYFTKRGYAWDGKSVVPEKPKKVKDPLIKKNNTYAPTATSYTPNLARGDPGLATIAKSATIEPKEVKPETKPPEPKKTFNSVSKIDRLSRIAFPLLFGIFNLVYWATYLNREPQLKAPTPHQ
Chain of Kappa-type opioid receptor (P41145 whole entry): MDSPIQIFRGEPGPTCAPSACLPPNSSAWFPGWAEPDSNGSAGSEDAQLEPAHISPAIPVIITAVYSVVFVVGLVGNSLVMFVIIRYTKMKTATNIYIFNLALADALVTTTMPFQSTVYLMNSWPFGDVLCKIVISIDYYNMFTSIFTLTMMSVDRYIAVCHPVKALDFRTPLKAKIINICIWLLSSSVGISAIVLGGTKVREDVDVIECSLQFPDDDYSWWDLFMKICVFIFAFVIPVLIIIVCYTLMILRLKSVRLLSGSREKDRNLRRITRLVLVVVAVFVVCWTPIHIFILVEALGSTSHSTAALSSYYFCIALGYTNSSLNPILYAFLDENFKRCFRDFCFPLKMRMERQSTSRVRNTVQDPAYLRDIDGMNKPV
T7 sequence (Q01959 whole entry): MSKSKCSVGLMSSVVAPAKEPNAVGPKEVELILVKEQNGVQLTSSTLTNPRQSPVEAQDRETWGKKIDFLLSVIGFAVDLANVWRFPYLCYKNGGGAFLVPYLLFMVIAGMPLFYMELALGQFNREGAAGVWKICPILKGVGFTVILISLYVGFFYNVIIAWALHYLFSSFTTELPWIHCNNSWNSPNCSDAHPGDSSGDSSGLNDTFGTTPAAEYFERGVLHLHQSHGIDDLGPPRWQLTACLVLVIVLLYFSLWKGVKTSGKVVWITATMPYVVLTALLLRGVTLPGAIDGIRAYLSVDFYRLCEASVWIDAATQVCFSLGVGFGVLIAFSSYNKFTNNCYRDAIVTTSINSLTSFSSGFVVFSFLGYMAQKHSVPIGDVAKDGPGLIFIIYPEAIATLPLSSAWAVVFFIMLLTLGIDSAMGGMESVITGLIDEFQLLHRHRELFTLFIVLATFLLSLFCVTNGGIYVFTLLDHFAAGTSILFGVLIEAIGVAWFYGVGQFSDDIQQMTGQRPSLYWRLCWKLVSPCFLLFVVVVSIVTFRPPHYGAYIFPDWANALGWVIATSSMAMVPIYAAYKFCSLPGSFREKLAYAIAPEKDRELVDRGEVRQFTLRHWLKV
Chain of Adenosine receptor A2a (P29274 whole entry): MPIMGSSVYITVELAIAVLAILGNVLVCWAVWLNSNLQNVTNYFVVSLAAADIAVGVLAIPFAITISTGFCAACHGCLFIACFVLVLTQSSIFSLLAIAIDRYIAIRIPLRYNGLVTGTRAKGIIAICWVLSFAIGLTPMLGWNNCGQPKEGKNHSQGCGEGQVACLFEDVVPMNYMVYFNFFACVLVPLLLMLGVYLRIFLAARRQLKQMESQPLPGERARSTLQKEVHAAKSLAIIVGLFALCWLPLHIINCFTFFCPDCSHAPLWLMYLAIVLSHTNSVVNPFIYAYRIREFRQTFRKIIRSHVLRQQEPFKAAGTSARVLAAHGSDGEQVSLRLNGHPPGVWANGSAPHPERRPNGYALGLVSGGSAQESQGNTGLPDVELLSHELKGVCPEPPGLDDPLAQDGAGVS
Chain of D(1A) dopamine receptor (P21728 whole entry): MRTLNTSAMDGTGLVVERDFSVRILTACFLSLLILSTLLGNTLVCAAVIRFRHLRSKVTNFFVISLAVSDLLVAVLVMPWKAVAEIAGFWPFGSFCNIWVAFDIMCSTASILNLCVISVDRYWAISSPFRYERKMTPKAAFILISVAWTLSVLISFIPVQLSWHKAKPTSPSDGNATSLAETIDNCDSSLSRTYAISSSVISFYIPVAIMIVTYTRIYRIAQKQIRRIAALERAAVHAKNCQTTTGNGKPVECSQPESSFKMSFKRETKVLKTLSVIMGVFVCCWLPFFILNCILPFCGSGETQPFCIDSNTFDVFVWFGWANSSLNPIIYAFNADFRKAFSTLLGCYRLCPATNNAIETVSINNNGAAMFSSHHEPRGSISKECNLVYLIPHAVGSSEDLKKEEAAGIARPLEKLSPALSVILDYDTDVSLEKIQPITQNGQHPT
T9 sequence (P21554 whole entry): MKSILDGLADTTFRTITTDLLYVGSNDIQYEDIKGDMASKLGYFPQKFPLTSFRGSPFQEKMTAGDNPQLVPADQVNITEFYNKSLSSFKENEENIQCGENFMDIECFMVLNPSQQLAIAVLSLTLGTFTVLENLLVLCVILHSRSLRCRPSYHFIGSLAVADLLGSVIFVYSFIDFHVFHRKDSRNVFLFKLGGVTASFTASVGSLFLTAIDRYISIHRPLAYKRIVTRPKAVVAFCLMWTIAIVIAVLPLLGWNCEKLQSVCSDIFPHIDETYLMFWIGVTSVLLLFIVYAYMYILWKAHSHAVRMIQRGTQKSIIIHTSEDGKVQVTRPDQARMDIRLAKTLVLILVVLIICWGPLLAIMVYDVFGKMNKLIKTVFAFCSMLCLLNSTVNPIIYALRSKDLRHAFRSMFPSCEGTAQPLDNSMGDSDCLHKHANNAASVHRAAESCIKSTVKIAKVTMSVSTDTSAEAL
Chain of 5-hydroxytryptamine receptor 2A (P28223 whole entry): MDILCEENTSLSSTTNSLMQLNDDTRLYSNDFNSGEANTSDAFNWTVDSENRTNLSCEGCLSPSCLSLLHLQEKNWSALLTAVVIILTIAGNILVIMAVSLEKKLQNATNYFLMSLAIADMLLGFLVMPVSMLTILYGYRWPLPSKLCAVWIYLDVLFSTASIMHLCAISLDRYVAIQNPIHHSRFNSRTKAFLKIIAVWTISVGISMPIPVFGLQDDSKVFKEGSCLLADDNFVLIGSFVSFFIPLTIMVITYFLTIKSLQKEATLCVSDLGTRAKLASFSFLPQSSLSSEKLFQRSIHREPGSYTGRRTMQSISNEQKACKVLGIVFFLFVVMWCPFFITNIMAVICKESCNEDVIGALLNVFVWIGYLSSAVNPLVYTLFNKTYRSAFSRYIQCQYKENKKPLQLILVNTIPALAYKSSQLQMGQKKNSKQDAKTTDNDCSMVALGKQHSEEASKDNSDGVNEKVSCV

Row | AC50 [6] [µM] | Structure (SMILES) | AC50 (Adenosine receptor A2a) [µM] | AC50 [1] [µM] | AC50 [2] [µM] | AC50 (D(1A) dopamine receptor) [µM] | AC50 (Endothelin-1 receptor) [µM] | AC50 [3] [µM] | AC50 [4] [µM] | AC50 [5] [µM] | AC50 [7] [µM] | AC50 (Mu-type opioid receptor [8]) [µM] | AC50 [9] [µM] | AC50 (D(3) dopamine receptor) [µM] | AC50 (Histamine H3 receptor [10]) [µM] | AC50 (Cannabinoid receptor 1 [11]) [µM] | AC50 (Cannabinoid receptor 1 [12]) [µM] | AC50 (Histamine H3 receptor [13]) [µM] | AC50 [14] [µM] | AC50 (Mu-type opioid receptor [15]) [µM] | AC50 [16] [µM]
1 | > 30 | COC(=O)N[C@H](C(=O)N1CCC[C@H]1c1nc(-c2ccc(-c3ccc(-c4c[nH]c([C@@H]5CCCN5C(=O)[C@@H](NC(=O)OC)C(C)C)n4)cc3)cc2)c[nH]1)C(C)C | > 30 | > 30 | > 30 | > 30 | > 30 | > 30 | > 30 | > 30 | 4.1 | > 30 | > 30 | > 30 | > 30 |  |  |  |  |  | 
2 |  | Nc1nc(N)c2nc(-c3ccccc3)c(N)nc2n1 | > 30 | > 30 | > 30 | > 30 | > 30 | > 30 | > 30 | > 30 | > 30 | > 30 | > 30 | > 30 | > 30 | > 30 | > 30 | > 30 | > 10 | 29.1 | > 30
3 |  | C[C@H]1O[C@H](O[C@H]2[C@H](O)[C@@H](O)[C@@H](O[C@H]3[C@H](O)[C@@H](O)C(O)O[C@@H]3CO)O[C@@H]2CO)[C@H](O)[C@@H](O)[C@@H]1N[C@H]1C=C(CO)[C@@H](O)[C@H](O)[C@H]1O (stereo partly drawn) [ACARBOSE] | > 30 | > 30 | > 10 | > 10 | > 30 |  | > 10 | > 30 | > 10 | > 30 | > 30 | > 10 | > 30 | > 30 | 30 | > 30 | > 10 | > 30 | > 30
4 | > 10 | CN1C(=O)CC(C)(c2ccccc2)C1=O (stereo not drawn) [METHSUXIMIDE] | > 10 | > 10 | > 10 | > 30 |  | > 10 | > 10 | > 10 | > 10 | > 30 | > 10 | > 30 |  |  |  |  | > 10 |  | 
5 |  | CCc1ccc(CCOc2ccc(CC3SC(=O)NC3=O)cc2)nc1 (stereo not drawn) [PIOGLITAZONE] | > 30 | > 10 | > 10 | > 10 | 15.9 | > 10 | > 10 | > 10 | > 10 | > 30 | > 30 | > 10 |  |  |  | > 3 | > 10 | > 30 | > 30
6 |  | NC(=O)c1cnccn1 [PYRAZINAMIDE] | > 30 | > 30 | > 30 | > 30 | > 30 | > 30 | > 30 | > 30 | > 30 | > 30 | > 30 | > 30 | > 30 | > 30 | > 30 | > 30 | > 10 | > 30 | > 30
7 |  | CS(=O)(=O)c1ccc([C@@H](O)[C@@H](CO)NC(=O)C(Cl)Cl)cc1 [THIAMPHENICOL] | > 30 | > 30 | > 30 | > 30 | > 30 | > 30 | > 30 | > 30 | > 30 | > 30 | > 30 | > 30 | > 30 | > 30 | > 30 | > 30 | > 30 | > 30 | > 30
